Test results published in PMC12095047, “Transport of phenoxyacetic acid herbicides by PIN-FORMED auxin transporters” (Nature Plants, 2025).
Values joined by “and” are separate entries in the source; they are usually repeats but may differ in a detail not shown here. Equal entries are not always repeated. Where two headings read alike, the source gives them in different places.

Columns and labels:
Assay type in all cases: biochemical
PIN8 N117A = target: T1, PIN8 N117A (Arabidopsis thaliana, UniProt Q9LFP6, N117A); experiment: SSM electrophysiology peak current, PIN8 N117A proteoliposomes; conditions: Substrate IAA, replicates
T1 construct: made in house
T1 sequence (Q9LFP6 whole entry N117A): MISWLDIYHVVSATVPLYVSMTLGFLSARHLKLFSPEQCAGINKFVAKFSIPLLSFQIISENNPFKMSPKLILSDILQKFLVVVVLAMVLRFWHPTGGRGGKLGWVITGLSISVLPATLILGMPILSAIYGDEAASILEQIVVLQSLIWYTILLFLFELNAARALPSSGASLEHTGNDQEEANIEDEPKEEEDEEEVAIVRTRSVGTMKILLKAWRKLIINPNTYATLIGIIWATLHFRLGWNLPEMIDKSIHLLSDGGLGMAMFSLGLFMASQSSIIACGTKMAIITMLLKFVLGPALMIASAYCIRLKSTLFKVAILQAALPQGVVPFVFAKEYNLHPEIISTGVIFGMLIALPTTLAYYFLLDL
Method: SSM, using a SURFE2R N1 from Nanion Technologies, was conducted as described. In brief, soy polar lipid mix (38% phosphatidyl choline, 30% phosphatidyl ethanolamine, 18% phosphatidyl inositol, 7% phosphatidic acid and 7% other soy lipids) and 1-palmitoyl-2-oleoyl-sn-glycero-3-phosphocholin were purchased from Avanti. Liposomes were prepared in Ringer solution without Ca^2+ (115 mM NaCl, 2.5 mM KCl, 1 mM NaHCO3, 10 mM HEPES pH7.4, 1 mM MgCl2) and homogenized using a Lipsofast (Avestin) with a […]. Triton X-100 was added to the liposomes to a final concentration of 1% (v/v). Protein was added to liposomes to a calculated lipid-to-protein ratio (LPR) of 10 unless stated otherwise. The detergent was removed using 400 mg ml^−1 Bio Beads (BioRad) overnight at 4 °C in a rotary shaker. Proteoliposomes were frozen in liquid nitrogen and kept at −80 °C until use. Proteoliposomes were diluted 1:5 in Ringer solution without Ca^2+, sonicated five times and then applied to the sensors by centrifugation (30 min, 3,000 g, 4 °C). Non-activating buffer was Ringer solution without Ca^2+ as described unless specified otherwise, and activating buffer contained the substrate of interest. In most instances we used a single-solution exchange experiment. In this case proteoliposomes, immobilized on the supported membrane, are kept in non-activating buffer as specified. At the beginning of the experiment the non-activating buffer is replaced with fresh identical non-activating buffer, and after 1 s, activating buffer (same buffer containing substrate) is added. After another second, the buffer is replaced with non-activating buffer again. Current response is recorded throughout the entire 3 s. For competition or inhibition, the respective compound was present in non-activating and activating solutions. Each experiment was performed on at least two individual sensors. On each sensor each measurement consists of three technical replicates where the mean is calculated. KD values were determined as described previously. Briefly, the binding current induced by 100 µM NPA was recorded in the presence of different concentrations of the substrate under investigation ranging between 0 µM and 1,000 µM present in the activating solution and the non-activating solution (Extended Data Fig. 5b). […] The maximum peak current was then plotted as a function of the concentration of the substrate under investigation and plotted against the degree of inhibition and fitted with a one-site binding model using GraphPad Prism V10.4.1 The half maximal concentration corresponds to the KD of the substrate under investigation.
The protocol for expression and purification of AtPIN8 protein (Uniprot: Q9LFP6) in lauryl maltose neopentyl glycol was described previously. All point mutants were generated using Q5 Site-Directed mutagenesis kit (New England Biolabs). The C-flat Holey Carbon grids (CF-1.2/1.3, Cu-300 mesh) were glow-discharged for 45 s at 15 mA in a GloQube Plus (Quorum). […] After 1 h of incubation on ice, the sample was centrifuged at 16,000 g for 15 min before blotting to remove precipitation. A drop of 4 µl of each sample was applied to the glow-discharged grids, blotted with a Vitrobot Mark IV (ThermoFisher Scientific) using the following settings (temperature 4 °C, 100% humidity, blot time of 4 s, blot force −1) and vitrified in liquid ethane.

PIN8 Y150A = target: T2, PIN8 Y150A (Arabidopsis thaliana, UniProt Q9LFP6, Y150A); conditions: for Peak current: Y150A, individual sensors
T2 construct: made in house
T2 sequence (Q9LFP6 whole entry Y150A): as the sequence (Q9LFP6 whole entry N117A) above, with A117N, Y150A counted along it

PIN8 S55A = target: T3, PIN8 S55A (Arabidopsis thaliana, UniProt Q9LFP6, S55A); conditions: for Peak current: S55A, individual sensors
T3 construct: made in house
T3 sequence (Q9LFP6 whole entry S55A): as the sequence (Q9LFP6 whole entry N117A) above, with S55A, A117N counted along it

PIN8 S146A = target: T4, PIN8 S146A (Arabidopsis thaliana, UniProt Q9LFP6, S146A); conditions: for Peak current: individual sensors
T4 construct: made in house
T4 sequence (Q9LFP6 whole entry S146A): as the sequence (Q9LFP6 whole entry N117A) above, with A117N, S146A counted along it

PIN8 N223A = target: T5, PIN8 N223A (Arabidopsis thaliana, UniProt Q9LFP6, N223A); conditions: PIN8 N223A, Michaelis–Menten fit
T5 construct: made in house
T5 sequence (Q9LFP6 whole entry N223A): as the sequence (Q9LFP6 whole entry N117A) above, with A117N, N223A counted along it

PIN8 I51Y = target: T6, PIN8 I51Y (Arabidopsis thaliana, UniProt Q9LFP6, I51Y); conditions: Michaelis–Menten fit
T6 construct: made in house
T6 sequence (Q9LFP6 whole entry I51Y): as the sequence (Q9LFP6 whole entry N117A) above, with I51Y, A117N counted along it

PIN8 S55A/S146A = target: T7, PIN8 S55A/S146A (Arabidopsis thaliana, UniProt Q9LFP6, S146A/S55A); conditions: Michaelis–Menten fit
T7 construct: made in house
T7 sequence (Q9LFP6 whole entry S55A/S146A): as the sequence (Q9LFP6 whole entry N117A) above, with S55A, A117N, S146A counted along it

[1] = target: T8, wild-type PIN8 proteoliposomes (Arabidopsis thaliana, UniProt Q9LFP6); experiment: SSM electrophysiology, peak width (FWHM) of current response at LPR10 and LPR50; conditions: for Rel. FWHM (% of LPR10): replicates
T8 construct: made in house
T8 sequence (Q9LFP6 1-367): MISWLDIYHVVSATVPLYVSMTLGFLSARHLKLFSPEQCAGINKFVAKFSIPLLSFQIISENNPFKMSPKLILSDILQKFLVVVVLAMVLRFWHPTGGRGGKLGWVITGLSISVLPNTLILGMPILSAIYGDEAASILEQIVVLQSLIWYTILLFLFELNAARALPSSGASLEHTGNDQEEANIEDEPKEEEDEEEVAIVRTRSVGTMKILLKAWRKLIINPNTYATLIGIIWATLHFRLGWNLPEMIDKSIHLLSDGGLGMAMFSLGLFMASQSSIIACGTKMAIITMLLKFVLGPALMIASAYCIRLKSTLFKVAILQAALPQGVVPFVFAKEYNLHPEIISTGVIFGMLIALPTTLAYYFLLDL

A. thaliana PIN8 = target: T9, A. thaliana PIN8 (Arabidopsis thaliana, UniProt Q9LFP6); experiment: SSM electrophysiology, peak current response on PIN8 proteoliposomes; conditions: for Peak current: WT, individual sensors; for Peak current (nA): Sensor 1-3
T9 construct: made in house
T9 sequence (Q9LFP6 1-367): T8 sequence (Q9LFP6 1-367)

[2] = read-out: EC50 of peak current response
[3] = WT PIN8 proteoliposomes, Michaelis–Menten fit

O=C(O)Cc1c[nH]c2ccccc12 [IAA, indole-3-acetic acid]
Relative Peak Current of WT (%) (PIN8 N117A; 100µM): 3.5397% and 5.375% and 9.48% and 13.4511%
Relative Peak Current of WT (%) (PIN8 N117A; 2mM): 11.8985% and 14.7068% and 17.3968% and 15.4928%
Imax (PIN8 Y150A; PIN8 Y150A, Michaelis–Menten fit): 4 ± 0.3 nA
EC50 (PIN8 Y150A; PIN8 Y150A, Michaelis–Menten fit, read-out: EC50 of peak current response): 1210 ± 298 µM
Peak current (PIN8 Y150A; 5 µM substrate): 0.07393 nA and 0.1605 nA and 0.184 nA
Peak current (PIN8 Y150A; 20 µM substrate): 0.162 nA and 0.2178 nA and 0.2518 nA
Peak current (PIN8 Y150A; 50 µM substrate): 0.2702 nA and 0.3405 nA and 0.3285 nA
Peak current (PIN8 Y150A; 100 µM substrate): 0.09437 nA and 0.3629 nA and 0.1017 nA
Peak current (PIN8 Y150A; 500 µM substrate): 0.8668 nA and 1.165 nA and 0.6916 nA
Peak current (PIN8 Y150A; 1000 µM substrate): 1.921 nA and 2.062 nA and 1.677 nA
Peak current (PIN8 Y150A; 2000 µM substrate): 2.244 nA and 2.472 nA and 1.95 nA
Imax (PIN8 S55A; PIN8 S55A, Michaelis–Menten fit): 6 ± 1 nA
EC50 (PIN8 S55A; PIN8 S55A, Michaelis–Menten fit, read-out: EC50 of peak current response): 213 ± 58 µM
Peak current (PIN8 S55A; 5 µM substrate): 0.3417 nA and 0.3232 nA and 0.2318 nA and 0.3509 nA
Peak current (PIN8 S55A; 20 µM substrate): 1.04 nA and 0.8246 nA and 0.4664 nA and 0.4596 nA
Peak current (PIN8 S55A; 50 µM substrate): 1.937 nA and 1.54 nA and 0.9207 nA and 0.8323 nA
Peak current (PIN8 S55A; 100 µM substrate): 2.888 nA and 2.325 nA and 1.514 nA and 1.385 nA
Peak current (PIN8 S55A; 500 µM substrate): 5.317 nA and 4.4508 nA and 3.048 nA and 3.044 nA
Peak current (PIN8 S55A; 1000 µM substrate): 6.258 nA and 5.302 nA and 3.739 nA and 3.804 nA
Peak current (PIN8 S55A; 2000 µM substrate): 7.104 nA and 6.138 nA and 4.476 nA and 4.5392 nA
Imax (PIN8 S146A; PIN8 S146A, Michaelis–Menten fit): 8 ± 2 nA
EC50 (PIN8 S146A; PIN8 S146A, Michaelis–Menten fit, read-out: EC50 of peak current response): 498 ± 191 µM
Peak current (PIN8 S146A; S146A, 5 µM substrate): 0.4304 nA and 0.01967 nA and 0.2252 nA
Peak current (PIN8 S146A; S146A, 20 µM substrate): 0.857 nA and 0.324 nA and 0.6461 nA
Peak current (PIN8 S146A; S146A, 50 µM substrate): 1.458 nA and 0.6503 nA and 1.2348 nA
Peak current (PIN8 S146A; S146A, 100 µM substrate): 2.021 nA and 0.7074 nA and 1.578 nA
Peak current (PIN8 S146A; S146A, 500 µM substrate): 4.698 nA and 2.244 nA and 4.077 nA
Peak current (PIN8 S146A; S146A, 1000 µM substrate): 6.329 nA and 3.684 nA and 6.024 nA
Peak current (PIN8 S146A; S146A, 2000 µM substrate): 7.444 nA and 4.338 nA and 6.988 nA
fold-change difference to the respective EC50 of wildtype PIN8 (PIN8 S146A; S146A, direction (higher or lower affinity) shown by colour only): ~ 2 fold
Imax (PIN8 N223A): 2 ± 0.8 nA
EC50 (PIN8 N223A; No transport = model could not be fit, read-out: EC50 of peak current response): 444 ± 205 µM
Imax (PIN8 I51Y): 2 ± 0.2 nA
EC50 (PIN8 I51Y; [2]): 547 ± 171 µM
Imax (PIN8 S55A/S146A): 7 ± 2 nA
EC50 (PIN8 S55A/S146A; [2]): 341 ± 128 µM
Rel. FWHM (% of LPR10) ([1]; LPR10): 1.043 % of LPR10 and 0.9783 % of LPR10 (2×)
peak width of SSM-based current response as a function of lipid-to-protein ratio (LPR) ([1]; LPR10 versus LPR50): vary with lipid-to-protein ratio (LPR)
Rel. FWHM (% of LPR10) ([1]; LPR50): 2.022 % of LPR10 (2×) and 1.957 % of LPR10
EC50 (A. thaliana PIN8; [3]): 250 µM and 254 µM
maximal current Imax (A. thaliana PIN8; [3]): 18 ± 3 nA
Peak current (A. thaliana PIN8; 5 µM substrate): 0.8096 nA and 0.6401 nA and 0.949 nA
Peak current (A. thaliana PIN8; 20 µM substrate): 1.842 nA and 1.724 nA and 2.164 nA
Peak current (A. thaliana PIN8; 50 µM substrate): 3.368 nA and 3.292 nA and 4.115 nA
Peak current (A. thaliana PIN8; 100 µM substrate): 4.516 nA and 4.8122 nA and 5.921 nA
Peak current (A. thaliana PIN8; 500 µM substrate): 9.827 nA and 10.2734 nA and 12.6135 nA
Peak current (A. thaliana PIN8; 1000 µM substrate): 13.1379 nA and 13.1579 nA and 16.4113 nA
Peak current (A. thaliana PIN8; 2000 µM substrate): 14.7357 nA and 15.0585 nA and 18.9117 nA
Peak current (nA) (A. thaliana PIN8; [IAA] 5 µM): 0.04999 nA and 0.08856 nA and 0.0843 nA
Peak current (nA) (A. thaliana PIN8; [IAA] 50 µM): 0.4222 nA and 0.6123 nA and 0.4745 nA
Peak current (nA) (A. thaliana PIN8; [IAA] 100 µM): 0.6662 nA and 0.8986 nA and 0.7119 nA
Peak current (nA) (A. thaliana PIN8; [IAA] 500 µM): 1.469 nA and 1.771 nA and 1.558 nA
Peak current (nA) (A. thaliana PIN8; [IAA] 1000 µM): 1.848 nA and 2.271 nA and 1.967 nA
Peak current (nA) (A. thaliana PIN8; [IAA] 2000 µM): 2.237 nA and 2.442 nA and 2.41 nA
